Data on 20 compounds can be found in patent publication US20250319046A1, “PHENYLALANINE-BASED LAT1 INHIBITORS AND USES THEREOF” (MAXYMUNE THERAPEUTICS, INC., priority 2024, published 2025).

Structures can show the parent of a compound that is named as a salt. Where two headings read alike, the source gives them in different places.

In data set [1] the target is LAT1 (Homo sapiens (Human), UniProt Q01650). As to the kind of experiment: LAT1 uptake inhibition assay: [3H]-gabapentin competition uptake in LN229 cells. It is filed as cell-based. The following applies: [3H]-gabapentin uptake. Here is the method:
LAT1 Uptake Inhibition Assay
The ability of compounds to interact with LAT1 was measured using a radiolabeled competition uptake assay with [^3H]-Gabapentin ([^3H]-GP) (Perkin Elmer) in 96-well plates with LN229 cells (ATCC®). Ten (10)×10^3 (10,000) cells/well were plated in white, clear bottom plates and were allowed to grow for three (3) days. On the fourth day, the cells were washed and then incubated with 50,000 counts per minute (cpm) of [^3H]-GP in phosphate buffered saline (PBS) (VWR International) with increasing concentrations of test compounds in at least triplicate for 15 min. At end of the assay time, the incubation solution was removed, and plates were washed three times (3×) with 100 μL of ice-cold PBS buffer. One-hundred fifty (150) […] of scintillation fluid (VWR International) was added to each well, and the radioactivity retained within the cells was measured on a 96-well scintillation counter. Background uptake ([^3H]-GP uptake in the presence of 10 mM non-radiolabeled gabapentin (GP)) (MedKoo) was subtracted and data were normalized to the DMSO control ([^3H]-GP uptake in the absence of any competitor). Data were fitted to the Michaelis-Menten equation using GraphPad Prism (Version 8.2.0).

Data set [2] relates to LN229 cells. The experiment in a line: Amino acid starvation assay: antiproliferation assay with LN229 cells (CellTiter-Glo). It is filed as cell-based. The conditions noted are these: F12K medium, six days. Here is the method:
Amino Acid Starvation Assay
The ability of compounds to inhibit amino acid uptake interact with LAT1 was measured using an antiproliferation assay with LN229 cells (ATCC®). LN229 cells were cultured in DMEM medium (VWR International). Two (2)×10^3 (2,000) cells/well were plated in clear bottom 96-well plates (CellBIND®, Corning 3340) and were allowed to attach overnight. The next day, cells were washed once with PBS buffer (VWR International). F12K medium ([…]) (VWR International) with increasing concentrations of test compounds in at least triplicate was added. Cells were incubated for six (6) days at 37° C. and 5% CO2. At end of the assay, 140 μL of supernatant medium were removed from each well and 60 μL of CellTiter-Glo® (Promega) were added. Cell lysis was induced by placing the plates for three (3) minutes on an orbital shaker. Plates were incubated for 10 min at 25° C. to stabilize the luminesce signal. Luminescence was recorded using an EnSpire® Multimode Plate Reader (Perkin Elmer). Background (luminescence from wells incubated in the presence of 100 µM of commercial LAT1 inhibitor JPH203 (MedKoo) was subtracted, and data were normalized to the DMSO control (proliferation in the absence of any competitor). Data were fitted to the Michaelis-Menten equation using GraphPad Prism (Version 8.2.0).
A general note: In ATP-based viability assays light output follows the ATP content of the culture.

[3] abbreviates: 15 min incubation in PBS, read-out: IC50, the concentration of test compound at which the [3H]-GP uptake was inhibited by 50%.
The mark [4] stands for this setting: Table 1, read-out: LAT1 inhibition IC50 (nM ± SE).
Where [5] appears, read: Homo sapiens, LN-229, 144 h, Table 1, read-out: Anti-proliferation LC50 (μM ± SE).
The mark [6] stands for this setting: Homo sapiens, LN-229, 144 h, read-out: LC50, the concentration of test compound at which the proliferation was inhibited by 50%.

Chain of LAT1 (Q01650 whole entry): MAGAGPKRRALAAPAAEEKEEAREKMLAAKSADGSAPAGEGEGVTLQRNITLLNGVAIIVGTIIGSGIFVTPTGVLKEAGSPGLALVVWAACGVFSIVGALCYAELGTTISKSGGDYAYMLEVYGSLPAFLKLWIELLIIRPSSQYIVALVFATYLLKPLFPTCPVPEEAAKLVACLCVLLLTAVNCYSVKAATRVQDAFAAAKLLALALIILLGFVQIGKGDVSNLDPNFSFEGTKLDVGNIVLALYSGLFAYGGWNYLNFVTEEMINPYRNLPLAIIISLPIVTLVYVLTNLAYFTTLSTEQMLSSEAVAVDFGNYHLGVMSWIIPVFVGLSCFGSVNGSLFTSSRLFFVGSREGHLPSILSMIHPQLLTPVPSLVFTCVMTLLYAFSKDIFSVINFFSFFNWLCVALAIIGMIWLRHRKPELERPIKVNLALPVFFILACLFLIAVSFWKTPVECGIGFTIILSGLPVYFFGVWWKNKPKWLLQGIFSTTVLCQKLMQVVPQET
Chain of LAT1 (P08195 whole entry partner): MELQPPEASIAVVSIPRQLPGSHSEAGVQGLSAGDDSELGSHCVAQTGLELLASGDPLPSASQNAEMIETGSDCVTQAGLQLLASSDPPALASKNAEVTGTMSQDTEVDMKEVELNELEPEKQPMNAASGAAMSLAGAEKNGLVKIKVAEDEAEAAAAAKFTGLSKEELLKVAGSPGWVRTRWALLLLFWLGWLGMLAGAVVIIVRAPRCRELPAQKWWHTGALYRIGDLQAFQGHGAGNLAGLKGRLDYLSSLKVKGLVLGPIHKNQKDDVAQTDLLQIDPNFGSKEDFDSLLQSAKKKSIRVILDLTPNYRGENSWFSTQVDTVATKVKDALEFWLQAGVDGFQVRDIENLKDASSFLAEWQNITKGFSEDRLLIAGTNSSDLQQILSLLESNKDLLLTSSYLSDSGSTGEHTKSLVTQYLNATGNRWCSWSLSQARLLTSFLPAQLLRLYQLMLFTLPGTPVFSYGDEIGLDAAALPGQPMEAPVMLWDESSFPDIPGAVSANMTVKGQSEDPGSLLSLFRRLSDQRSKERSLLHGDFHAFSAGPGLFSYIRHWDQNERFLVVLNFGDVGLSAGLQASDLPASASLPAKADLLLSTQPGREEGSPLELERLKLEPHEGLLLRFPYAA

Regarding `Cc1ccc(S(=O)(=O)Nc2cccc3ccccc23)cc1C[C@H](N)C(=O)O` [Compound 39, (S)-2-Amino-3-(2-methyl-5-(N-(naphthalen-1-yl)sulfamoyl)phenyl)propanoic Acid], the IC50 in data set [1] (setting [3]) was 20 to 100 nM; in data set [1] (setting [4]), 24 ± 9 nM. Further, the CC50 in data set [2] (setting [5]) was 32 ± 2 µM; in data set [2] (setting [6]) it was 30 to 100 µM.

As to `Cc1ccc(S(=O)(=O)NC2CCCCC2)cc1C[C@H](N)C(=O)O` [Compound 53, (S)-2-Amino-3-(5-(N-cyclohexylsulfamoyl)-2-methylphenyl)propanoic Acid], the IC50 in data set [1] (setting [3]) is 20 to 100 nM; in data set [1] (setting [4]), 60 ± 10 nM. Also, the CC50 was 100 ± 10 µM in data set [2] (setting [5]) and ≥ 100 µM in data set [2] (setting [6]).

As to `Cc1ccc(S(=O)(=O)Nc2cccc3c(N(C)C)cccc23)cc1C[C@H](N)C(=O)O` [Compound 49, (S)-2-Amino-3-(5-(N-(5-(dimethylamino)naphthalen-1-yl)sulfamoyl)-2-methylphenyl)propanoic Acid], the IC50 in data set [1] (setting [3]) is 20 to 100 nM; in data set [1] (setting [4]) it was 80 ± 20 nM. Also, the figures for the CC50 in data set [2] (setting [5]) and in data set [2] (setting [6]) were 100 ± 10 µM and ≥ 100 µM, respectively.

`Cc1ccc(S(=O)(=O)NCc2ccccc2)cc1C[C@H](N)C(=O)O` [Compound 30, (S)-2-Amino-3-(5-(N-benzylsulfamoyl)-2-methylphenyl)propanoic Acid]: the IC50 in data set [1] (setting [3]) is ≤ 20 nM; in data set [1] (setting [4]) it was 20 ± 4 nM. Moreover, the CC50 in data set [2] (setting [5]) is 38 ± 2 µM; in data set [2] (setting [6]), 30 to 100 µM.

For `Nc1cc(COc2c(Cl)cc(C[C@H](N)C(=O)O)cc2Cl)c2oc(-c3ccccc3)nc2c1` [JPH203, (S)-2-Amino-3-(4-((5-amino-2-phenylbenzo[d]oxazol-7-yl)methoxy)-3,5-dichlorophenyl)propanoic Acid, reference compound], the IC50 in data set [1] (read-out: IC50 in the LAT1 uptake inhibition assay) came out at 19 ± 6 nM. In addition, the CC50 in data set [2] (setting [6]) came to 20 ± 10 µM.

Consider `COc1ccc(NS(=O)(=O)c2ccc(C)c(C[C@H](N)C(=O)O)c2)cc1` [Compound 44, (S)-2-Amino-3-(5-(N-(4-methoxyphenyl)sulfamoyl)-2-methylphenyl)propanoic Acid], for which the figures for the IC50 in data set [1] (setting [3]) and in data set [1] (setting [4]) were ≤ 20 nM and 10 ± 3 nM, respectively. The CC50 in data set [2] (setting [5]) is 20 ± 6 µM; in data set [2] (setting [6]) it was < 30 µM.

Consider `Cc1ccc(NS(=O)(=O)c2cccc(-c3ccccc3)c2)cc1C[C@H](N)C(=O)O` [Compound 38, (S)-3-(5-([1,1′-Biphenyl]-3-sulfonamido)-2-methylphenyl)-2-aminopropanoic Acid], for which the values for the IC50 in data set [1] (setting [3]) and in data set [1] (setting [4]) were 20 to 100 nM and 40 ± 10 nM, respectively. Moreover, the CC50 in data set [2] (setting [5]) is 52 ± 2 µM; in data set [2] (setting [6]), 30 to 100 µM.

In the case of `Cc1ccc(NS(=O)(=O)c2ccc(C(C)(C)C)cc2)cc1C[C@H](N)C(=O)O` [Compound 87, (S)-2-Amino-3-(5-((4-(tert-butyl)phenyl)sulfonamido)-2-methylphenyl)propanoic Acid], the IC50 in data set [1] (setting [3]) is 20 to 100 nM; in data set [1] (setting [4]), 100 ± 20 nM. Moreover, the CC50 in data set [2] (setting [5]) is 100 ± 20 µM; in data set [2] (setting [6]), ≥ 100 µM.

With `CC(C)c1ccc(S(=O)(=O)Nc2ccc(Cl)cc2)cc1C[C@H](N)C(=O)O` [Compound 86, (S)-2-Amino-3-(5-(N-(4-chlorophenyl)sulfamoyl)-2-isopropylphenyl)propanoic Acid], the IC50 was ≤ 20 nM in data set [1] (setting [3]) and 10 ± 1 nM in data set [1] (setting [4]). In addition, the values for the CC50 in data set [2] (setting [5]) and in data set [2] (setting [6]) were 4 ± 0.7 µM and < 30 µM, respectively.

With `Cc1ccc(S(=O)(=O)Nc2ccc(Cl)cc2)cc1C[C@H](N)C(=O)OC(C)(C)C` [Compound 82, tert-Butyl (S)-2-amino-3-(5-(N-(4-chlorophenyl)sulfamoyl)-2-methylphenyl)propanoate], in data set [1] (setting [3]), the IC50 lay in the range of 20 to 100 nM. The CC50 in data set [2] (setting [6]) is ≥ 100 µM.

`Cc1ccc(S(=O)(=O)Nc2cccc(Br)c2)cc1C[C@H](N)C(=O)O` [Compound 76, (S)-2-Amino-3-(5-(N-(3-bromophenyl)sulfamoyl)-2-methylphenyl)propanoic Acid]: the IC50 is ≤ 20 nM in data set [1] (setting [3]) and 9 ± 3 nM in data set [1] (setting [4]). Besides, the results for the CC50 in data set [2] (setting [5]) and in data set [2] (setting [6]) were 11 ± 1 µM and < 30 µM, respectively.

In the case of `Cc1ccc(S(=O)(=O)Nc2ccccc2)cc1C[C@H](N)C(=O)O` [Compound 35, (S)-2-Amino-3-(2-methyl-5-(N-phenylsulfamoyl)phenyl)propanoic Acid Hydrochloride], in data set [1] (setting [4]), the IC50 came to 30 ± 8 nM. The CC50 in data set [2] (Table 1, read-out: Anti-proliferation LC50 (μM ± SE)) stood at 40 ± 10 µM.

Consider `Cc1ccc(S(=O)(=O)Nc2ccc(Cl)cc2)cc1C[C@H](N)C(=O)O` [Compound 52, (S)-2-Amino-3-(5-(N-(4-chlorophenyl)sulfamoyl)-2-methylphenyl)propanoic Acid], for which the IC50 in data set [1] (setting [3]) is ≤ 20 nM; in data set [1] (setting [4]), 12 ± 2 nM. The CC50 was 9.7 ± 0.7 µM in data set [2] (setting [5]) and < 30 µM in data set [2] (setting [6]).

`CCCCNS(=O)(=O)c1ccc(C)c(C[C@H](N)C(=O)O)c1` [Compound 41, (S)-2-Amino-3-(5-(N-butylsulfamoyl)-2-methylphenyl)propanoic Acid]: the IC50 in data set [1] (setting [3]) was 20 to 100 nM; in data set [1] (setting [4]), 56 ± 9 nM. Moreover, the CC50 in data set [2] (setting [5]) is 36 ± 10 µM; in data set [2] (setting [6]), 30 to 100 µM.

For `Cc1ccc(NS(=O)(=O)c2ccccc2)cc1C[C@H](N)C(=O)O` [Compound 10, (S)-2-Amino-3-(2-methyl-5-(phenylsulfonamido)phenyl)propanoic Acid], the IC50 in data set [1] (setting [3]) was 20 to 100 nM; in data set [1] (setting [4]) it was 100 ± 40 nM. Further, the CC50 was 70 ± 20 µM in data set [2] (setting [5]) and 30 to 100 µM in data set [2] (setting [6]).

Take `N[C@@H](Cc1cccc(S(=O)(=O)Nc2ccc(Cl)cc2)c1)C(=O)O` [Compound 79, (S)-2-Amino-3-(3-(N-(4-chlorophenyl)sulfamoyl)phenyl)propanoic Acid]: the IC50 is 20 to 100 nM in data set [1] (setting [3]) and 80 ± 10 nM in data set [1] (setting [4]). For the same compound, the figures for the CC50 in data set [2] (setting [5]) and in data set [2] (setting [6]) were 100 ± 20 µM and ≥ 100 µM, respectively.

As for `Cc1ccc(S(=O)(=O)Nc2ccc(Br)cc2)cc1C[C@H](N)C(=O)O` [Compound 77, (S)-2-Amino-3-(5-(N-(4-bromophenyl)sulfamoyl)-2-methylphenyl)propanoic Acid], the IC50 is ≤ 20 nM in data set [1] (setting [3]) and 12 ± 4 nM in data set [1] (setting [4]). The CC50 in data set [2] (setting [5]) is 13 ± 1 µM; in data set [2] (setting [6]), < 30 µM.

`CC(C)c1ccc(NS(=O)(=O)c2cccc3c(N(C)C)cccc23)cc1C[C@H](N)C(=O)O` [Compound 21, (S)-2-Amino-3-(5-((5-(dimethylamino)naphthalene)-1-sulfonamido)-2-isopropylphenyl)propanoic Acid]: the IC50 in data set [1] (setting [3]) is 20 to 100 nM; in data set [1] (setting [4]), 50 ± 10 nM. The CC50 is 49 ± 1 µM in data set [2] (setting [5]) and 30 to 100 µM in data set [2] (setting [6]).

Consider `Cc1ccc(NS(=O)(=O)c2cccc(Br)c2)cc1C[C@H](N)C(=O)O` [Compound 29, (S)-2-Amino-3-(5-((3-bromophenyl)sulfonamido)-2-methylphenyl)propanoic Acid], for which the IC50 in data set [1] (setting [3]) was 20 to 100 nM; in data set [1] (setting [4]), 40 ± 10 nM. The CC50 in data set [2] (setting [5]) was 90 ± 30 µM; in data set [2] (setting [6]), 30 to 100 µM.

For the compound `Cc1ccc(S(=O)(=O)Nc2ccc(-c3ccccc3)cc2)cc1C[C@H](N)C(=O)O` [Compound 40, (S)-3-(5-(N-([1,1′-Biphenyl]-4-yl)sulfamoyl)-2-methylphenyl)-2-aminopropanoic Acid], the values for the IC50 in data set [1] (setting [3]) and in data set [1] (setting [4]) were 20 to 100 nM and 25 ± 8 nM, respectively. In addition, the CC50 in data set [2] (setting [5]) is 60 ± 20 µM; in data set [2] (setting [6]), 30 to 100 µM.
